Data on twelve molecules can be found in ChEMBL document CHEMBL1201862, “PubChem BioAssay data set” (2004).

Some test systems named below: OVCAR-8; HCC 2998; ACHN; EKVX; OVCAR-3; SNB-19; U-251; HCT-116; SF-295; MDA-N; MCF7; MDA-MB-231; SN12C; SF-539; OVCAR-4; SF-268; HL-60; A498; Malme-3M.
Common to all, as to experiment: DTP human tumour cell line panel, 48 h

The structures appear in SMILES notation.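 Test compounds were applied to cells in 96-well plates for 48 hours at 5 doses. GI50: concentration for 50% inhibition of growth.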 Activity calls are given as the source filed them. Rule as the data show it: active = GI50 up to about 1.1 µM and inactive = higher.

Consider `O=C1/C(=C/c2ccc(Cl)cc2)Oc2cc(O)ccc21` [6-HYDROXY-4'-CHLORO AURONE], for which the GI50 (as a rule, the concentration at which growth is held to half of that of the control) in the assay on OVCAR-8 was 31.9 µM (inactive); in the assay with HCC 2998, 39.3 µM (inactive); in the assay with ACHN it was 28.1 µM (inactive); with EKVX it was 29.2 µM (inactive); in the assay on OVCAR-3, 34.7 µM (inactive); in the assay on SNB-19, 26.6 µM (inactive). Further, the GI50 in the assay with U-251 was 26.5 µM (inactive); in the assay on HCT-116, 30.5 µM (inactive); with SF-295, 38.4 µM (inactive); in the assay with MDA-N, 30.2 µM (inactive); with MCF7 it was 34 µM (inactive); in the assay on MDA-MB-231, 34.6 µM (inactive). Besides, the GI50 in the assay on SN12C is 29.8 µM (inactive); in the assay with SF-539, 21.9 µM (inactive); in the assay with OVCAR-4, 47.5 µM (inactive); in the assay with SF-268, 52.8 µM (inactive); in the assay on HL-60, 18.1 µM (inactive).

As for `COc1ccc(-n2c(-c3ccccc3)cc(-c3cccs3)c2-c2cccs2)cc1`, the GI50 with OVCAR-8, in the assay on HCC 2998, in the assay with ACHN, in the assay on EKVX, with OVCAR-3 and with U-251 was > 100 µM (inactive) in each case. In addition, the GI50 in the assay with HCT-116 is > 100 µM (inactive); with SF-295 it was > 100 µM (inactive); in the assay with A498 it was > 100 µM (inactive); in the assay with MCF7, > 100 µM (inactive); in the assay with MDA-MB-231, 10.1 µM (inactive); in the assay on SN12C, > 100 µM (inactive). Also, the GI50 is 39.1 µM (inactive) in the assay on SF-539, 56.6 µM (inactive) in the assay on OVCAR-4 and > 100 µM (inactive) in the assay on SF-268.

Turning to `N#CC1C(=O)NC(=O)C(C#N)C1c1ccc(Cl)c(Cl)c1` (stereo not drawn), the GI50 was 37.4 µM (inactive) in the assay with OVCAR-8; > 100 µM (inactive) in the assay on Malme-3M; 22.4 µM (inactive) in the assay with ACHN; > 100 µM (inactive) in the assay with EKVX; 24.2 µM (inactive) with OVCAR-3; 91.2 µM (inactive) with SNB-19. Also, the GI50 in the assay with U-251 was 23.7 µM (inactive); in the assay on HCT-116 it was 13.9 µM (inactive); in the assay on SF-295, 40.3 µM (inactive); in the assay with MCF7, 34.4 µM (inactive); with MDA-MB-231, < 0.01 µM (active); in the assay on SN12C it was < 0.01 µM (active). Moreover, the GI50 was 19.4 µM (inactive) with SF-539, 81.8 µM (inactive) with OVCAR-4, 34.8 µM (inactive) in the assay on SF-268 and 35.4 µM (inactive) with HL-60.

Consider `O=C1C(=O)N(C23CC4CC(CC(C4)C2)C3)C(=S)N1c1ccccc1`, for which the GI50 in the assay on OVCAR-8 is 97.9 µM (inactive); in the assay with HCC 2998, > 100 µM (inactive); in the assay with Malme-3M it was > 100 µM (inactive); with ACHN, > 100 µM (inactive); in the assay on EKVX it was 43.5 µM (inactive); in the assay on SNB-19, > 100 µM (inactive). For the same molecule, the GI50 with U-251 is > 100 µM (inactive); in the assay on HCT-116, 93.5 µM (inactive); in the assay with SF-295 it was 97.5 µM (inactive); with MDA-N, > 100 µM (inactive); in the assay with A498 it was > 100 µM (inactive); in the assay with MDA-MB-231, > 100 µM (inactive). Further, the GI50 in the assay on SN12C was > 100 µM (inactive); in the assay on SF-539, > 100 µM (inactive); in the assay on OVCAR-4, > 100 µM (inactive); in the assay with SF-268, > 100 µM (inactive); with HL-60 it was 42.8 µM (inactive).

Regarding `CCOC(=O)C(=[N+]=[N-])C(=O)C[N+]12CCN(CC1)CC2`, the GI50 in the assay with OVCAR-8, in the assay with HCC 2998, in the assay on Malme-3M, in the assay on ACHN, in the assay with OVCAR-3 and in the assay with SNB-19 was > 100 µM (inactive) each time. For the same molecule, the GI50 in the assay with U-251, in the assay on HCT-116, with SF-295, in the assay with MDA-N, in the assay on A498 and in the assay with MDA-MB-231 was > 100 µM (inactive) each time. Also, the GI50 in the assay on SN12C, in the assay with OVCAR-4 and with SF-268 was > 100 µM (inactive) each time.

Take `O=C(OCC(Cl)(Cl)Cl)O[C@@H]1CCCC1(c1ccccc1)c1ccccc1`: the GI50 with HCC 2998 was 45.4 µM (inactive); with ACHN, > 100 µM (inactive); with EKVX, > 100 µM (inactive); in the assay on SNB-19, > 100 µM (inactive); in the assay with U-251 it was > 100 µM (inactive); in the assay on HCT-116, 44.8 µM (inactive). Besides, the GI50 in the assay on SF-295 is > 100 µM (inactive); in the assay with MDA-N, 72.4 µM (inactive); in the assay on MCF7, 55.1 µM (inactive); with MDA-MB-231, > 100 µM (inactive); in the assay on SN12C, > 100 µM (inactive); with OVCAR-4, > 100 µM (inactive). The GI50 in the assay with SF-268 was > 100 µM (inactive).

With `CC1(c2ccc(Cl)cc2)c2ccccc2C(=O)N1CCCN1C(=O)c2ccccc2C1=O` (stereo not drawn), the GI50 with OVCAR-8 was 26.7 µM (inactive); in the assay on ACHN, 29.6 µM (inactive); with EKVX, 3.36 µM (inactive); with OVCAR-3 it was 32.7 µM (inactive); with SNB-19, 18.3 µM (inactive); in the assay on U-251, 52.8 µM (inactive). The GI50 in the assay on HCT-116 is 13.6 µM (inactive); with SF-295, 24.2 µM (inactive); with MDA-N, 58.7 µM (inactive); in the assay on A498 it was > 100 µM (inactive); in the assay with MDA-MB-231 it was > 100 µM (inactive); in the assay on SN12C, > 100 µM (inactive). Also, the GI50 in the assay on OVCAR-4 is 61.8 µM (inactive); in the assay on SF-268 it was 40.6 µM (inactive); with HL-60, 28.5 µM (inactive).

On to `O=c1[nH]c2nc(S)nc(S)c2[nH]1`, for which the GI50 with OVCAR-8, in the assay on HCC 2998, in the assay with Malme-3M, in the assay on ACHN, in the assay on EKVX and with SNB-19 was > 100 µM (inactive) throughout. Moreover, the GI50 with U-251, in the assay with HCT-116, with SF-295, with MDA-N, with A498 and in the assay with MDA-MB-231 was > 100 µM (inactive) in each case. The GI50 in the assay with SN12C, with OVCAR-4, with SF-268 and with HL-60 was > 100 µM (inactive) in each case.

In the case of `O=C1CCC2(c3ccc(Cl)cc3)Nc3ncncc3N12` (stereo not drawn), the GI50 in the assay on OVCAR-8, in the assay with HCC 2998, with Malme-3M, in the assay on ACHN, in the assay on EKVX and in the assay on OVCAR-3 was > 10 µM (inactive) in each case. Besides, the GI50 with SNB-19 was > 10 µM (inactive); in the assay on U-251 it was > 10 µM (inactive); with SF-295, > 10 µM (inactive); in the assay on MDA-N, > 10 µM (inactive); in the assay with MCF7, > 10 µM (inactive); with MDA-MB-231 it was 0.001 µM (active). For the same molecule, the GI50 in the assay on SN12C, with SF-539, in the assay on OVCAR-4 and in the assay with SF-268 was > 10 µM (inactive) each time.

`S=C1/C(=N/c2ccccc2)N(C2CCCCC2)/C(=N\C2CCCCC2)N1c1ccccc1`: the GI50 is > 100 µM (inactive) in the assay on OVCAR-8; 86.5 µM (inactive) with HCC 2998; > 100 µM (inactive) in the assay on Malme-3M; > 100 µM (inactive) in the assay with ACHN; > 100 µM (inactive) with EKVX; 47.2 µM (inactive) with SNB-19. In addition, the GI50 in the assay with U-251 is 32.2 µM (inactive); in the assay on HCT-116, 68.9 µM (inactive); with SF-295 it was 36 µM (inactive); in the assay with MDA-N, > 100 µM (inactive); in the assay with A498 it was > 100 µM (inactive); with MDA-MB-231, > 100 µM (inactive). Also, the GI50 in the assay with SN12C was 47.8 µM (inactive); in the assay with SF-539, 1.18 µM (inactive); with OVCAR-4 it was > 100 µM (inactive); with SF-268 it was > 100 µM (inactive); in the assay on HL-60, > 100 µM (inactive).

On to `C=C1C(=O)O[C@H]2[C@H]3O[C@@H](C[C@@H]12)[C@](C)(O)CCCC(C)=CCC[C@H]3C`, for which the GI50 in the assay with OVCAR-8 was 5.97 µM (inactive); in the assay with HCC 2998, 11.1 µM (inactive); in the assay with ACHN, 10.1 µM (inactive); in the assay on EKVX, 10.4 µM (inactive); with OVCAR-3 it was 13.9 µM (inactive); with SNB-19, 16.9 µM (inactive). The GI50 in the assay with U-251 is 14 µM (inactive); with HCT-116 it was 13.6 µM (inactive); with SF-295 it was 16.5 µM (inactive); in the assay with MDA-N, 16.1 µM (inactive); with MCF7, 7.26 µM (inactive); in the assay with MDA-MB-231 it was 11.7 µM (inactive). In addition, the GI50 with SN12C was 11.9 µM (inactive); in the assay with SF-539, 10.2 µM (inactive); in the assay on OVCAR-4, 16.1 µM (inactive); in the assay with SF-268, 8.04 µM (inactive).

With `Oc1ccccc1/C=N/N1C(=S)N(C23CC4CC(CC(C4)C2)C3)C(=N\c2ccccc2)/C1=N/c1ccccc1`, the GI50 in the assay with OVCAR-8 is > 100 µM (inactive); in the assay on HCC 2998, > 100 µM (inactive); with Malme-3M, > 100 µM (inactive); in the assay on ACHN, 50 µM (inactive); in the assay on EKVX, > 100 µM (inactive); with OVCAR-3 it was > 100 µM (inactive). Also, the GI50 is 77.4 µM (inactive) in the assay with SNB-19; 76.6 µM (inactive) in the assay on U-251; 14.1 µM (inactive) with HCT-116; > 100 µM (inactive) in the assay on SF-295; > 100 µM (inactive) with MDA-N; 8.04 µM (inactive) in the assay with MDA-MB-231. Moreover, the GI50 in the assay with SN12C, with SF-539 and with SF-268 was > 100 µM (inactive) in each case.
